# Test: Human HepG2 cell viability assay in 384 well format
# Type: toxicity, cell-based
# Parameters: dose 125 nL, time 70.5 hour; concentration not given beside the values
# Conditions: HepG2 cells, read-out: Inhibition
row,Compound,cytotoxicity at 70.5 h [%]
1,CC(C)(C)n1ncc2c(=O)n(CC(=O)NCc3ccccc3Cl)cnc21,-0.0412
2,CC(C)(C)n1ncc2c(=O)n(CC(=O)NCc3ccccc3)cnc21,7.32
3,Cc1c(C)n2c(SCC(=O)N3CCOCC3)nnc2[nH]c1=O,-3.31
4,CCc1c(C)nc(SCc2ccccn2)[nH]c1=O,-5.97
5,CCOC(=O)c1sc(NC(=O)C(C)C)c(C#N)c1C,-5.23
6,Cc1c(C)n2c(SCC(=O)N3CCCCC3)nnc2[nH]c1=O,-8.89
7,CCn1/c(=N/C(=O)CSCC(=O)Nc2nccs2)sc2ccccc21,-0.443
8,Nc1nc2c(c(NC(=O)Nc3cccc(Cl)c3)n1)CCCC2,13.3
9,COCCn1/c(=N\C(=O)CN(C)S(C)(=O)=O)sc2cc(C)ccc21,14.4
10,COCCSc1ccc(-n2cccn2)nn1,12.3
11,COCCSc1ccc(-n2ccnc2)nn1,26.4
12,Cc1ccccc1OCC(=O)NCC(c1ccc(N(C)C)cc1)N(C)C (centres undefined),29.2
13,Cc1cc(=O)[nH]c(-n2nc(-c3cccs3)cc2N)n1,13.9
14,O=c1n(Cc2cccc(C(F)(F)F)c2)nc2ncccn12,24.8
15,CCN(CC)C(=O)CSc1nc2c(cnn2CCO)c(=O)[nH]1,17.2
16,O=C(Cc1ccc(Cl)s1)Nc1ccc2c(c1)C(=O)NC2=O,-1.77
17,NC(=O)Cn1c(CO)cnc1SCC(=O)NCc1ccccc1,13.6
18,CN1C(=O)CCc2cc(NC(=O)C3CCCC3)ccc21,26.5
19,O=S(=O)(NCC(c1ccsc1)N1CCCCCC1)c1cccs1 (centres undefined),-3.34
20,CCOc1ccc(C(=O)Nc2c(C)nc3scc(C)n3c2=O)cc1,-0.312
21,CC(=O)Nc1ccc2c(c1)CN(C(=O)c1ccco1)CC2,18.4
22,CCOc1cc(N2CCN(C(=O)c3ccc(OC)cc3)CC2)nc(C)n1,5.38
23,O=C(Nc1ncnc2c1CCC2)c1cccc(F)c1,11.5

row,Compound,cytotoxicity at 70.5 h [%]
1,COc1cc(OC)cc(C(=O)Nc2ncnc3c2CCC3)c1,59
2,Cc1cc(C(=O)N2CCN(c3nc4ccccc4s3)CC2)no1,48.3
3,COc1cccc2sc(N3CCN(C(=O)c4cc(C)on4)CC3)nc12,-2.51
4,Cc1cnc2c(c1NCc1ccc(F)cc1)c(=O)n(C)c(=O)n2C,12.7
5,Cc1cnc2c(c1NCc1cccs1)c(=O)n(C)c(=O)n2C,-16.9
6,CC(C)NC(=O)Cn1cc(OCc2ccc(F)cc2)c(=O)cc1CO,-4.49
7,COCCNC(=O)Cn1cc(OCc2ccc(F)cc2)c(=O)cc1CO,-9.69
8,O=C(CC1CSc2nccc(=O)n21)NCc1ccco1 (centres undefined),-1.36
9,Cc1cnc2n(c1=O)C(CC(=O)NCc1ccccc1Cl)CS2 (centres undefined),35
10,Cc1cnc2n(c1=O)C(CC(=O)NCc1cccnc1)CS2 (centres undefined),-0.178
11,CCCc1cc(=O)[nH]c2nnc(SCC(N)=O)n12,23.3
12,CCCc1cc(=O)[nH]c2nnc(SCC(C)=O)n12,-6.78
13,Cc1cccc(-n2ncc3c(=O)n(CCN4CCCCC4)cnc32)c1C,28
14,CCOC(=O)c1sc(NC(=O)CN2C(=O)CCC2=O)c(C#N)c1C,31.1
15,CCS(=O)(=O)c1cccc(C(=O)Nc2cccc3c2C(=O)N(C)C3=O)c1,31
16,CCCc1cc(=O)n(CC(=O)NCCOC)c(-n2nc(C)cc2C)n1,-0.382
17,O=C(CSC1=NS(=O)(=O)c2cc(F)ccc2N1)Nc1ccc(Cl)cc1,22.3
18,CCNC(=O)NCc1nn(CCN2CCCC2)c(=O)c2ccccc12,-5.36
19,CN(C)S(=O)(=O)NCc1nn(CCN2CCCC2)c(=O)c2ccccc12,-12.7
20,Cc1ccccc1CSc1nc(=O)n(CCO)c2c1CCC2,-9.33
21,CCCN1CCc2nc(SCc3ccccc3)[nH]c(=O)c2C1,8.44
22,CCCN1CCc2nc(SCc3ccccc3F)[nH]c(=O)c2C1,6.37
23,CCCS(=O)(=O)c1ccc(N2CCC(Cc3ccccc3)CC2)nn1,-2.73

row,Compound,cytotoxicity at 70.5 h [%]
1,CC(C)(C)OC(=O)Cn1cccc(S(=O)(=O)N2CCCC2)c1=O,-12.8
2,O=c1c(S(=O)(=O)N2CCCC2)cccn1Cc1c(F)cccc1Cl,-6.76
3,O=C1NC[C@@]2(C(=O)O)CN(Cc3cccc(OC4CCCC4)c3)C[C@@H]12,-3
4,Cc1ccccc1N1CCN(C(=O)Cn2ccnc2)CC1=O,14.2
5,Cc1ccc(Cl)c(CN2CCC3(CC2)C(C(=O)O)CC(=O)N3C)c1F (centres undefined),-5.82
6,O=C(CC[C@@H]1CCCN2CCCC[C@H]12)N1CCC(c2nnc[nH]2)CC1,-7.68
7,COc1ccc(CCN2C(=O)O[C@@H]3CN(C4CCOCC4)C[C@@H]32)cc1,5.89
8,O=C(NC1CCN(C2CC2)CC1)N1CCN(c2cnccn2)CC1,3.56
9,Cc1ccc(-c2cc(CNC(=O)N3CCC(N(C)C)CC3)on2)cc1,4.4
10,CC(C)N1CCN(C(=O)Nc2cnc3c(cnn3C(C)C)c2)CC1,1.68
11,Cc1nc(CNC(=O)NCC(O)c2ccccc2)cs1 (centres undefined),-2.52
12,CC(C)C(C(=O)N1CCN(c2nccs2)CC1)n1cncn1 (centres undefined),0.606
13,CC(C)n1ncc2cc(NC(=O)N3CCC(CO)CC3)cnc21,3.41
14,CC(=O)N1CCC(NC(=O)N2CCN(c3cnccn3)CC2)CC1,1.14
15,CCc1nc(C2CCCN(C(=O)c3ccccc3Cl)C2)no1 (centres undefined),-1.75
16,COc1c(C2CCCN2CC(=O)Nc2cccnc2)c(C)nn1C (centres undefined),-6.38
17,Cc1nc(C2CCCN2CC(=O)N(C)Cc2ccsc2)no1 (centres undefined),12.6
18,Cc1nc(C2CCCN2CC(=O)NCCc2ccc(Cl)cc2)no1 (centres undefined),-2.31
19,Cc1nc(CN(C)C2CCN(CC3CCCC3)C2)no1 (centres undefined),-1.44
20,CC(=O)c1cccc(NC(=O)CCn2nc(-c3cccs3)oc2=O)c1,-18.2
21,CC(=O)c1cccc(NC(=O)Cn2nc(-c3cccs3)oc2=O)c1,10.5
22,O=C(C1CCN(Cc2nc(-c3ccco3)no2)CC1)N1CCCC1,-4.18
23,COc1ncccc1C(=O)NC1CCOc2ccccc21 (centres undefined),-6.62

row,Compound,cytotoxicity at 70.5 h [%]
1,CCOc1cc(C(=O)NS(=O)(=O)c2cccc(C#N)c2)ccc1OC,-10
2,CC(C(=O)N1CCOCC1)N1CCN(Cc2nccn2C)CC1 (centres undefined),-2.07
3,Cc1nccn1C1CCCN(C(=O)c2ccc3c(c2)nc(C)n3C)C1 (centres undefined),-3.08
4,NC(=O)c1ccc(C(=O)N2CCCCC2Cn2cccn2)s1 (centres undefined),19.1
5,CCc1nc(C2CCCN2C(=O)CCc2nc(C3CC3)no2)no1 (centres undefined),-1.64
6,CC(=O)N(Cc1noc(C2CC2)n1)C1CCN(CC(=O)NC2CC2)C1 (centres undefined),-7.63
7,CC(=O)N(Cc1noc(C2CC2)n1)C1CCN(Cc2cc(C)on2)C1 (centres undefined),-3.51
8,O=C(c1cc2c(s1)CCCC2)N1CCCC1Cn1cccn1 (centres undefined),-4.37
9,COCCCN1CCC(N(Cc2noc(C)n2)C(C)=O)C1 (centres undefined),-5.67
10,c1cnn(CC2CN(Cc3nnc(C4CC4)o3)CCO2)c1 (centres undefined),-4.26
11,CCc1nc(C2CCCN2C(=O)CCc2nc(C(C)(C)C)no2)no1 (centres undefined),15.3
12,Cc1nnc2n1CCN(Cc1csc(-c3ncccn3)n1)C2,39.4
13,CCc1nnc2n1CCN(Cc1csc(Cc3ccccc3)n1)C2,15.5
14,CCOc1ccc(CN2CCN(C(=O)c3cc(C4CC4)[nH]n3)CC2)cc1,-2.02
15,CC(C)c1ccc(CN2CCN(C(=O)c3cc(C4CC4)[nH]n3)CC2)cc1,44.7
16,CC(C)c1noc(CN2CCN(C(=O)c3cccnc3O)CC2)n1,-3.73
17,O=C(CN1CCN(c2nccs2)CC1)Nc1cccnc1,-7.83
18,NC(=O)C1CN(C(=O)Nc2ccc(SC(F)(F)F)cc2)CCO1 (centres undefined),-10.3
19,Cc1ccccc1NC1CCN(C(=O)CCc2ccco2)CC1,1.41
20,NC(=O)C1CN(C(=O)Nc2ccccc2OCC(F)(F)F)CCO1 (centres undefined),-4.53
21,c1ccc2oc(N3CCCC3Cn3cncn3)nc2c1 (centres undefined),-3.56
22,Cc1nc(C)n(CC2CCCN2CCCc2nc3ccccc3o2)n1 (centres undefined),-5.85
23,NC(=O)COc1ccc(C(=O)N2CCCC(n3ccnc3)C2)cc1 (centres undefined),-3

row,Compound,cytotoxicity at 70.5 h [%]
1,Cc1ccc(NC2CCN(C(=O)CCc3c(C)noc3C)CC2)nn1,-11.1
2,Cn1cc(C2CCCN2C(=O)c2cn(-c3ccccc3)nn2)cn1 (centres undefined),-0.276
3,Cc1ccc(-n2ncc(C(=O)N3CCCC3c3cnn(C)c3)c2C)cc1 (centres undefined),11.4
4,NC(=O)c1cccc(C(=O)N2CCCC(n3ccnc3)C2)c1 (centres undefined),-3.58
5,NC(=O)C1CN(C(=O)Nc2ccccc2Oc2ccccc2Cl)CCO1 (centres undefined),-6.93
6,Cc1cc(NC(=O)CN2CCN(c3nccs3)C(C)C2)on1 (centres undefined),-6.15
7,Cc1cc(NC(=O)CN2CCN(c3nccs3)C(C)C2)no1 (centres undefined),-8.11
8,Cc1n[nH]c(C)c1NC(=O)CN1CCN(c2nccs2)C(C)C1 (centres undefined),-1.01
9,CC(C)c1noc(CN2CCN(C(=O)c3cccc(F)c3)CC2)n1,-8.17
10,COc1cccc(C(=O)N2CCN(Cc3nc(C(C)C)no3)CC2)c1,-5.91
11,COc1c(C2CCCN2Cc2nc(-c3ccco3)no2)c(C)nn1C (centres undefined),-2.62
12,CN1CCOC(CN(C(=O)CN2CCCC2=O)c2nccs2)C1 (centres undefined),9.36
13,Cc1ccc(NC2CCN(C(=O)CCc3nccs3)CC2)nn1,-12.3
14,c1ccc2oc(CN3CCCCC3Cn3cncn3)nc2c1 (centres undefined),-4.46
15,NC(=O)c1cccc(OCC(=O)N2CCCC(n3ccnc3)C2)c1 (centres undefined),-11.1
16,CN(Cc1nnc(C2CC2)n1C)C1CCN(Cc2nccn2C)C1 (centres undefined),2.78
17,COc1cccc2cc(CNCc3ccnc(N4CCCCC4)c3)oc12,3.87
18,CCn1c(C)nnc1CN(C)C1CCN(Cc2nnc(C3CC3)o2)C1 (centres undefined),2.54
19,CCc1nnc(CN2CCCC2Cn2cc(C)cn2)o1 (centres undefined),17.8
20,Cn1cnc(S(=O)(=O)NCCCN2CCCC2)c1Cl,-4.58
21,O=C(Nc1nc2c(s1)CNCC2)NC1CCCC1,18.7
22,CCCC(=O)N(CCCN1CCOCC1)c1nc2c(C)ccc(Cl)c2s1,-3.12
